Experimental data: US20080287531A1, “Preventive and/or Therapeutic Agent for Sleeping Disorder” (Kyowa Hakko Co., Ltd., priority 2004, published 2008)
Where “and” joins values, the source holds several entries; their conditions need not be identical. Equal entries are not always repeated. Entries after “also recorded” stand apart in the source; their conditions may differ. Structures can show the parent of a compound that is named as a salt.

How the values were obtained:
[1] = system: nasal congestion of allergic rhinitis; details: Phase III test, Non-patent Document 7; cited from earlier work
[2] = system: nasal congestion reaction; details: guinea pigs, experimental allergic rhinitis model, Non-patent Document 8; cited from earlier work
[3] = system: patients with sleep apnea syndrome / sleeping disorder; test: Daytime Epworth sleepness scale (ESS) test; assay type: in vivo, human; details: total of 8 conditions, 10 points or less is normal, oral 10 mg/day
Description: (§1) Olopatadine hydrochloride was orally administered at a dose of 10 mg/day [a 5-mg tablet of Allelock (registered trademark: Kyowa Hakko Kogyo Co., Ltd.) was administered everyday, twice a day, with one tablet for each administration] to three patients (patient Nos. 1 to 3) with sleep apnea syndrome complicated by allergic rhinitis and seven patients (patient Nos. 4 to 10) with sleeping disorder which is not complicated by allergic rhinitis including four patients (patient Nos. 4 to 6 and 8) with sleep apnea syndrome which is not complicated by allergic rhinitis. Before and after the administration of olopatadine hydrochloride, an apnea-hypopnea index (AHI), an apnea index (AI) and an arousals index per hour were measured respectively by polysonography (PSG) for each patient. Further, before and after the administration of olopatadine hydrochloride, a test for daytime Epworth sleepness scale was performed according to the following.
In the following conditions 1 to 8, sleepiness was determined according to the next four levels, and seriousness of daytime sleepiness was evaluated by the total (ESS) of the points. A case in which ESS is 10 points or less is evaluated as normal.
2 points=sometimes sleeps
1. when sitting and reading a book
2. when watching television
3. when sitting in a public place without movement (for example, in a theater or a conference room) […]

[4] = system: patients with sleep apnea syndrome / sleeping disorder; test: Estimation of effect on chief-complaint symptoms (snore, apnea, daytime sleepiness); assay type: in vivo, human; details: for Estimation of effect: oral 10 mg/day
Description: as §1
The effect of the agent was estimated according to the following standard.
Incidentally, as objective assessment, improved conditions in values of AHI, AI, arousals index and ESS were used for reference.

[5] = system: patients with sleep apnea syndrome / sleeping disorder; test: Polysonography (PSG) before and after administration of olopatadine hydrochloride; assay type: in vivo, human; details: for AI After therapy: apnea index by PSG; for AHI After therapy: apnea-hypopnea index by PSG; for Arousals Index After therapy: arousals index per hour by PSG
Description: as §1
The presence or absence of allergic rhinitis was confirmed by performing RAST (radioallergosorbent test) for 12 types of antigens [house dust, Dermatophagoides pteronyssinus, Japanese cedar, Hinoki cypress, Japanese alder, ragweed, mugwort, goldenrod, Cocksfoot (Dactylis glomerata), Candida albicans, mold and animal epithelium].
The patients uncomplicated by allergic rhinitis had airway obstruction caused by non-atopic rhinitis.

[6] = oral 10 mg/day, 74-160 days, one line per patient (Nos. 4-10), sleeping disorder not complicated by allergic rhinitis
[7] = oral 10 mg/day, 160-342 days, one line per patient (Nos. 1-3), sleep apnea syndrome complicated by allergic rhinitis

SMILES	Effect on nasal congestion of allergic rhinitis [1]	Action on nasal congestion reaction [2]	ESS After therapy ([3]; 74-160 days, one line per patient (Nos. 4-10), not complicated by allergic rhinitis)	ESS After therapy ([3]; 160-342 days, one line per patient (Nos. 1-3), complicated by allergic rhinitis)	Estimation of effect ([4]; 74-160 days, one line per patient (Nos. 4-10), sleeping disorder not complicated by allergic rhinitis)	Estimation of effect ([4]; 160-342 days, one line per patient (Nos. 1-3), sleep apnea syndrome complicated by allergic rhinitis)	Clinical effect on symptoms of sleeping disorder ([4]; patients with sleep apnea syndrome complicated by allergic rhinitis, snore, apnea, hypopnea, arousals, daytime sleepiness)	Clinical effect on symptoms of sleeping disorder ([4]; patients with sleeping disorder not complicated by allergic rhinitis, snore, apnea, hypopnea, arousals, daytime sleepiness, morning headache)	Clinical effect on symptoms of sleeping disorder ([4]; regardless of the presence or absence of complication by allergic rhinitis)	AI After therapy [5, 6]	AI After therapy [5, 7]	AHI After therapy ([5]; oral 10 mg/day (5-mg tablet twice a day), 160-342 days, one line per patient (Nos. 1-3), sleep apnea syndrome complicated by allergic rhinitis)	AHI After therapy [5, 6]	Arousals Index After therapy [5, 6]	Arousals Index After therapy [5, 7]
CN(C)CC/C=C1/c2ccccc2COc2ccc(CC(=O)O)cc21 [compound 1, (Z)-11-(3-dimethylaminopropylidene)-6,11-dihydrodibenzo[b,e]oxepine-2-acetic acid]	highly improve the nasal congestion of allergic rhinitis	inhibitory action on a nasal congestion reaction													
CN(C)CC/C=C1/c2ccccc2COc2ccc(CC(=O)O)cc21 [olopatadine hydrochloride]			11 points and 10 points (2×) and 8 points and 9 points (2×) and 12 points	12 points and 11 points and 9 points	Improved; also recorded: Markedly	Improved; also recorded: Markedly	improves symptoms of sleeping disorder	improves symptoms of sleeping disorder	improves symptoms of sleeping disorder	3.4 and 1.2 and 3.1 and 0.8 (2×) and 0.4 and 2.8	4.3 and 1.5 and 7.6	5.8 and 2.7 and 11.1	4.2 and 2.6 and 4.5 and 1.3 and 0.9 and 1.8 and 3.4	5.9 and 2.6 and 5.3 and 2.3 and 1.8 and 2.1 and 4.9	10.3 and 4.4 and 18.9
